US10017734B2, “Method for producing dopaminergic neurons” (TAKEDA PHARMACEUTICAL COMPANY LIMITED, priority 2013, dated 2018)

What was measured:
Assay type in all cases: cell-based
[1] = test system: cryopreserved day 26 cells induced from human iPS cell (253G1 strain, 201B7 strain); test: Dopaminergic neuron marker expression by quantitative RT-PCR 2 weeks after thawing of cells cryopreserved on day 26; conditions: Y27632 10 μM
Experimental: Midbrain floor plate cells were induced by a method similar to the methods described in Reference Examples 1 to 3, the medium was exchanged with Neuro/B27 added with 0.1 mM ascorbic acid, 0.5 mM dbcAMP, 3 μM PD0325901, and 20 ng/ml activin A (R&D) on day 12 of culture, and the cells were cultured for 14 days more (total 26 days). After culture, the cells were washed with PBS, and dispersed by treating with Accutase (Innovative Cell Technologies) at 37° C. for 20-30 min. After centrifugal washing, the cells were suspended in cell banker 2 (Juji Field Inc.) at a concentration of about 2×10^6 cells/ml/tube, and cryopreserved at −80° C. The cryopreserved cells were thawed by immersion in a thermostatic tank at 37° C. and, after centrifugal washing, seeded in a 96 well plate at a density of 2×10^4 cells per well, and cultured at 37° C. under 5% CO2 for 2 weeks. As the above-mentioned 96 well plate, one coated at 37° C. overnight with Matrigel 1/30-1/40 diluted with DMEM/F12 (Life Technologies Corporation) or Laminin (Trevigen Inc.) diluted with DMEM/F12 at a concentration of 10 μg/ml was used. As the culture medium, Neuro/B27 added with one or more kinds of 0.1 mM ascorbic acid, 0.5 mM dbcAMP, 3 μM PD0325901, and 20 ng/ml activin A, or Neuro/B27 without addition of ascorbic acid, dbcAMP, PD0325901, and activin A as a control was used. […]

[2] = test system: human iPS cell (253G1 strain, 201B7 strain); test: Time-course expression of differentiation markers by quantitative RT-PCR in the three-step differentiation system; conditions: conditions excluding only purmorphamine (-Pur)
Experimental: In step 1, the cells were cultured in Neuro/B27 added with 0.5 μM LDN193189, 10 μM SB431542, 0.5 μM purmorphamine, 200 ng/ml SHH and 1 μM CHIR99021 for 5 days. In step 2, the cells were cultured in Neuro/B27 added with 0.5 μM LDN193189 and 1 μM CHIR99021 for 8 days (total 13 days). In step 3, the cells were cultured in Neuro/B27 added with 0.1 mM ascorbic acid, 0.5 mM dbcAMP and 3 μM PD0325901 for 32 days (total 45 days). After culture, time-course expression variation of various differentiation markers was measured by a method similar to Reference Example 3.
As a control, the cells were cultured under conditions without addition of a differentiation inducing factor (− in Figure), conditions excluding only SHH (−SHH in Figure) or conditions excluding only purmorphamine (−Pur in Figure). Also, the group subjected to differentiation induction under the conditions shown in FIG. 9 from step 2 onward was studied.

[3] = test system: floor plate cells induced from human iPS cell (253G1 strain, 201B7 strain); test: TH and NURR1 expression by quantitative RT-PCR on day 26 of culture; conditions: dbcAMP and activin A
Experimental: Floor plate cells were induced by a method similar to the methods described in Reference Examples 1 to 3, the medium was exchanged with Neuro/B27 added with one or more kinds of 0.1 mM ascorbic acid, 0.5 mM dbcAMP, 3 μM PD0325901, and 20 ng/ml activin A (R&D), or Neuro/B27 without addition of ascorbic acid, dbcAMP, PD0325901, and activin A as a control on day 12 of culture, and the cells were cultured for 14 days more (total 26 days). The cells after culture were recovered, and the expression variation of TH and NURR1 was examined by a method similar to Reference Example 3. […] On the other hand, when ascorbic acid, dbcAMP and PD0325901 were added, the expression level was lower at the time point of day 26 of culture than the addition of ascorbic acid, dbcAMP and activin A.

[4] = test system: floor plate cells induced from human iPS cell (253G1 strain, 201B7 strain); test: Immunofluorescent staining of TH, NURR1 and FOXA2 proteins on days 45-52 of culture; conditions: PD0325901 added to ascorbic acid and dbcAMP (Example 1, (A))
Experimental: Then, the expression of midbrain dopaminergic neuron markers TH, NURR1 and FOXA2 proteins was examined by immunofluorescent staining using anti-TH antibody, anti-NURR1 antibody and anti-FOXA2 antibody. Floor plate cells were induced by a method similar to the methods described in Reference Examples 1 to 3, differentiation induction was performed by exchanging the medium with (A) Neuro/B27 added with 3 factors of ascorbic acid, dbcAMP and PD0325901, or (B) Neuro/B27 added with 2 factors of ascorbic acid and dbcAMP from day 13 of culture, 4% PFA was added on days 45-52 of culture, and the cells were fixed at room temperature for 30 min. The cells were reacted with anti-TH antibody (AB152, Nihon Millipore K.K.), anti-NURR1 antibody (PP-N1404-00, Perseus Proteomics) and anti-FOXA2 antibody (sc-6544, Santa Cruz) as the primary antibodies, and sequentially reacted with Alexa488-labeled secondary antibody, Alexa568-labeled secondary antibody and Alexa647-labeled secondary antibody, corresponding to the immunized animal of the primary antibody, as the secondary antibodies, and observed under a fluorescence microscope. […]

[5] = test system: floor plate cells induced from human iPS cell (253G1 strain, 201B7 strain); test: NURR1 expression by quantitative RT-PCR on day 45 after differentiation of floor plate cells; conditions: 3 μM PD0325901 added in addition to ascorbic acid and dbcAMP
Experimental: Floor plate cells were induced by a method similar to the methods described in Reference Examples 1 to 3, the medium was exchanged with (A) Neuro/B27 added with 3 factors of 0.1 mM ascorbic acid (SIGMA), 0.5 mM dibutyryl-cAMP (SIGMA, hereinafter to be indicated as dbcAMP) and 3 μM PD0325901, or (B) Neuro/B27 added with 2 factors of 0.1 mM ascorbic acid and 0.5 mM dbcAMP on day 13 of culture, and the cells were cultured at 37° C. under 5% CO2 for not less than 30 days. The medium was exchanged every 3-4 days during the above-mentioned culture periods. On day 45 of culture, the cells were recovered, and expression variation of NURR1 known as a transcription factor extremely important for the differentiation, maturation and maintenance of functions of midbrain dopaminergic neuron was examined.

[6] = test system: dopaminergic neuron induced from human iPS cell (253G1 strain, 201B7 strain); test: Ability to release dopamine by high-KCl stimulation on day 50 of culture; conditions: HBSS with 55 mM KCl vs HBSS
Experimental: Floor plate cells were induced by a method similar to the methods described in Reference Examples 1 to 3, differentiation induction was performed by exchanging the medium with (A) Neuro/B27 added with 3 factors of ascorbic acid, dbcAMP and PD0325901, or (B) Neuro/B27 added with 2 factors of ascorbic acid and dbcAMP from day 13 of culture, and an ability to release dopamine by stimulation with high-KCl was evaluated on day 50 of culture.
The above-mentioned evaluation was performed as follows. The medium of the cells after differentiation induction was exchanged with Neuro/B27, and the cells were cultured overnight. […] For the analysis, a trace biological sample analysis system and HTEC500 (Eicom Corporation), electrochemical detector EPC-500 (Eicom Corporation) were used, and the amount of dopamine contained in the sample was measured according to the manual of Eicom Corporation (Eicom information No. 25). […] However, when differentiation was induced using the aforementioned (A) Neuro/B27, an increase in the amount of dopamine released by stimulation with high-KCl could be detected with good reproducibility even in a different lot.

[7] = test system: floor plate cells induced from human iPS cell (253G1 strain, 201B7 strain); test: Study of various MEK inhibitors (including FGFR inhibitor): NURR1 expression by quantitative RT-PCR on day 45; conditions: 253G1 strain, added to ascorbic acid and dbcAMP, 3 μM PD0325901, 3 μM PD184352, 10 μM SU5402
From the text: Whether midbrain dopaminergic neuron can be induced in a medium containing any of PD184352 (Axon MedChem), SU5402 (FGF receptor (FGFR) inhibitor, Wako Pure Chemical Industries, Ltd.) and PD173074 (FGFR inhibitor, Axon MedChem) instead of PD0325901 in the aforementioned (A) Neuro/B27 was studied.
Floor plate cells were induced by a method similar to the methods described in Reference Examples 1 to 3, the medium was exchanged with Neuro/B27 added with (1) 3 factors of ascorbic acid, dbcAMP and PD0325901, (2) 2 factors of ascorbic acid and dbcAMP, (3) ascorbic acid, dbcAMP and 3 μM PD184352, (4) ascorbic acid, dbcAMP and 10 μM SU5402, or (5) ascorbic acid, dbcAMP and 0.1 μM PD173074 on day 13 of culture, and the cells were cultured at 37° C. under 5% CO2 for not less than 30 days. The medium was exchanged every 3-4 days during the above-mentioned culture periods. On day 45 of culture, the cells were recovered, and expression variation of NURR1 was examined. In 253G1 strain, the expression of NURR1 was elevated by the addition of PD0325901, PD184352 or SU5402 and, in 201B7 strain, the expression of NURR1 was elevated by the addition of all 4 kinds.

C[C@@H](N)[C@H]1CC[C@H](C(=O)Nc2ccncc2)CC1 [Y27632, (R)-(+)-trans-4-(1-aminoethyl)-N-(4-pyridyl)cyclohexanecarboxamide]
expression levels of the markers, presence or absence of Y27632 [1]: scarcely different

c1ccc2c(Oc3nc(Nc4ccc(N5CCOCC5)cc4)c4ncn(C5CCCCC5)c4n3)cccc2c1 [purmorphamine, N-(4-morpholinophenyl)-2-(1-naphthyloxy)-9-cyclohexyl-9H-purin-6-amine]
expression of FOXA2 [2]: low

O=C(NOC[C@H](O)CO)c1ccc(F)c(F)c1Nc1ccc(I)cc1F [PD0325901, N-[(2R)-2,3-dihydroxypropoxy]-3,4-difluoro-2-[(2-fluoro-4-iodophenyl)amino]-benzamide]
expression of TH and NURR1 ([3]; 3 μM PD0325901 added together with ascorbic acid): further elevated highly | expression level of TH and NURR1 ([3]; ascorbic acid, dbcAMP and PD0325901 compared with ascorbic acid): lower | staining with NURR1 protein [4]: strongly-positive | expression of NURR1 [5]: further elevated highly | increase in the amount of dopamine released by stimulation with high-KCl [6]: stably detected | expression of NURR1 [7]: elevated
